Data published in US20110123670A1, “COMESTIBLE PRODUCTS” (priority 2007, published 2011).

Assays:
[1] = Determination of cooling effect: drop in temperature on dissolving sweetener powder in distilled water at 37° C.; assay type: physicochemical; settings: cooling effect of sweeteners, tested in duplicate, mean
Procedure: 150 g of sweetener powder was dissolved in 50 ml of distilled water at 37° C. with stirring. The drop in temperature was measured after 20 seconds than a further 50 ml of distilled water added and the temperature measured after a further 20 seconds. This step was repeated […] to a total volume of water of 200 ml. All samples were tested in duplicate and the result derived from the mean of the values obtained. The repeated addition of water was intended to mimic the conditions in the mouth, where more saliva would be produced as chewing of the comestible progresses. As a result, the cooling effect is indicative of the cooling effect that would be observed in the mouth upon dissolution of the sweetener during consumption.

[2] = test system: panel of 10-12 trained assessors; assay: Determination of salivation effect: Quantitative Descriptive Analysis, Time-Intensity measurement of salivating mouthfeel; assay type: in vivo; settings: for Increase Angle (°) / Time to Maximum Salivatory Effect / Area under Curve / Intensity at Maximum: salivating effect, chewy confectionary with 46.0 wt % test sweetener, 90 second test period, mean of at least 13 repetitions; for Area under Curve / Intensity at Maximum: relative values
Excerpt: (§1) Quantitative Descriptive Analysis was used to determine the salivation effect of the invention. Seven samples of confectionary were tasted by a panel of 10-12 trained assessors using the technique of Time-Intensity measurement. The samples differed only in the sweetener component of the product.
(§2) This technique involves the testing of the confectionary sample in a sensory booth. The booth contained a computer equipped with software which allowed the panellist to record the perceived level of the mouth-watering sensation with time. Each assessor measured the perceived intensity of salivating mouthfeel at 1 second intervals over a time period of 90 seconds for each sample. This was achieved by initiating a timer within the software as the sample was placed in the mouth. Over the subsequent 90 second period the position of a marker on a linear slide scale was adjusted according to the perceived level of salivation. The data thus obtained was then processed to produce an analysis curve (intensity of effect versus time). The assessment was repeated multiple times (multiple assessors were used and at least three repetitions per assessor) and the result derived from the mean of the values obtained. The parameters determined were as follows: • Time to maximum salivatory effect, the time taken in seconds for the sample to reach its maximum intensity, a short time being indicative of the desired rapid inception of mouth-watering; • Intensity of salivation at maximum, the highest point in the curve as recorded by each assessor, a high intensity being generally preferred; • Area under the analysis curve, the larger this area the greater the total salivation over the 90 second test period; and • Increase angle, the angle in degrees of ascent from the first recorded value to the maximum intensity, a greater increase angle on the curve illustrates which samples have the greatest increase in salivation per unit time.
A series of tests were carried out to determine the mouth-watering effect and cooling effect derived from each of a range of sweeteners. The sweeteners tested were sugar (sucrose), erythritol, isomaltulose, trehalose, galactose, dextrose monohydrate and xylitol. Conventional methods were used to prepare this candy chew.

[3] = test system: panel of 10-12 trained assessors; assay: Quantitative Descriptive Analysis of cooling effect (temperature decrease in the nose and mouth); assay type: in vivo; settings: mean of at least 10 repetitions; for Increase Angle (°) / Area under Curve / Intensity at Maximum: cooling effect; for Area under Curve / Intensity at Maximum: relative values; for Time to maximum cooling effect: table of cooling effect parameters
Excerpt: as §1, §2
In addition, the Quantitative Descriptive Analysis as described above with regard to the evaluation of salivation was applied to determine the time to maximum cooling effect, the intensity of cooling at maximum, the area under the analysis curve and the increase angle. Cooling was assessed in terms of the temperature decrease in the nose and mouth, at the time of drawing air into the mouth. As with the determination of salivation using this technique, for effective cooling, a larger value is desirable for all parameters except the time to maximum cooling.

[4] = Studies by the applicant on galactose in sports drinks; assay type: in vivo; settings: compared with glucose

| SMILES | Magnitude of reduction in temperature at T = 90 seconds (° C.) [1] | Increase Angle (°) [2] | Time to Maximum Salivatory Effect [2] | Area under Curve [2] | Intensity at Maximum [2] | Increase Angle (°) [3] | Area under Curve [3] | Intensity at Maximum [3] | Time to maximum cooling effect [3] | incidence of hypoglycaemia [4] | overall sporting performance [4] | mouth-watering effect relative to that observed through the use of sugar ([2]; at the 90 second interval, FIG. 1) |
| --- | --- | --- | --- | --- | --- | --- | --- | --- | --- | --- | --- | --- |
| OC[C@H]1O[C@H](O[C@H]2O[C@H](CO)[C@@H](O)[C@H](O)[C@H]2O)[C@H](O)[C@@H](O)[C@@H]1O [Trehalose, trehalose] | – | 35.3 ° | 66.5 s | 2253 | 43 | – | – | – | – | – | – | – |
| OC[C@@H](O)[C@@H](O)CO [Erythritol, erythritol] | – | 51.8 ° | 64.8 s | 4079 | 73 | 81.5 ° | 3431 | 59.9 | 63.5 s | – | – | – |
| O=C[C@H](O)[C@@H](O)[C@@H](O)[C@H](O)CO [Galactose, galactose] | 11.0 °C | 51.5 ° | 62 s | 3561 | 64.9 | 39.3 ° | 725 | 14.6 | 57.1 s | lower | increased | approximately 2.5 times |
| OC[C@H]1O[C@H](OC[C@H]2OC(O)(CO)[C@@H](O)[C@@H]2O)[C@H](O)[C@@H](O)[C@@H]1O (some centres unmarked) [Isomaltulose, isomaltulose] | – | 31.1 ° | 65.7 s | 1898 | 34.3 | – | – | – | – | – | – | – |
| O.O=C[C@H](O)[C@@H](O)[C@H](O)[C@H](O)CO [Dextrose Monohydrate, dextrose monohydrate] | 14.5 °C | 38 ° | 76.7 s | 2306 | 52.1 | 36.5 ° | 663 | 24 | 81.9 s | – | – | – |

Now from value to molecule, other results behind:

| Magnitude of reduction in temperature at T = 90 seconds (° C.) [1] | SMILES | Increase Angle (°) [2] | Time to Maximum Salivatory Effect [2] | Area under Curve [2] | Intensity at Maximum [2] | Increase Angle (°) [3] | Area under Curve [3] | Intensity at Maximum [3] | Time to maximum cooling effect [3] | incidence of hypoglycaemia [4] | overall sporting performance [4] | mouth-watering effect relative to that observed through the use of sugar ([2]; at the 90 second interval, FIG. 1) |
| --- | --- | --- | --- | --- | --- | --- | --- | --- | --- | --- | --- | --- |
| 13.0 °C | OC[C@@H](O)[C@@H](O)[C@H](O)[C@H](O)CO [Mannitol] | – | – | – | – | – | – | – | – | – | – | – |
| 26.0 °C | OC[C@@H](O)[C@H](O)[C@@H](O)CO [Xylitol, xylitol] | 39.3 ° | 70.3 s | 2874 | 53.1 | 46 ° | 2457 | 44.7 | 64.5 s | – | – | – |
| 16.5 °C | OC[C@@H](O)[C@@H](O[C@H]1O[C@H](CO)[C@@H](O)[C@H](O)[C@H]1O)[C@H](O)[C@@H](O)CO [Maltitol] | – | – | – | – | – | – | – | – | – | – | – |
| 13.5 °C | OC[C@H]1O[C@@](CO)(O[C@H]2O[C@H](CO)[C@@H](O)[C@H](O)[C@H]2O)[C@@H](O)[C@@H]1O [Sugar, sucrose] | 35.1 ° | 58.9 s | 1673 | 28.6 | – | – | – | – | – | – | – |
